Measurements as given in PMC7724566, “Prospects for Clinical Development of Stat5 Inhibitor IST5-002: High Transcriptomic Specificity in Prostate Cancer and Low Toxicity In Vivo” (Cancers, 2020).

Key:
JAK3 = biological target: T1, JAK3 (Homo sapiens, UniProt P52333); assay: Cell-based tyrosine phosphorylation of Jak kinases (IP/immunoblot); design: endogenous in cells; host or cells: DU145 and CWR22Pc; conditions: 6 µM, 6 h
T1 sequence (P52333 1-1124): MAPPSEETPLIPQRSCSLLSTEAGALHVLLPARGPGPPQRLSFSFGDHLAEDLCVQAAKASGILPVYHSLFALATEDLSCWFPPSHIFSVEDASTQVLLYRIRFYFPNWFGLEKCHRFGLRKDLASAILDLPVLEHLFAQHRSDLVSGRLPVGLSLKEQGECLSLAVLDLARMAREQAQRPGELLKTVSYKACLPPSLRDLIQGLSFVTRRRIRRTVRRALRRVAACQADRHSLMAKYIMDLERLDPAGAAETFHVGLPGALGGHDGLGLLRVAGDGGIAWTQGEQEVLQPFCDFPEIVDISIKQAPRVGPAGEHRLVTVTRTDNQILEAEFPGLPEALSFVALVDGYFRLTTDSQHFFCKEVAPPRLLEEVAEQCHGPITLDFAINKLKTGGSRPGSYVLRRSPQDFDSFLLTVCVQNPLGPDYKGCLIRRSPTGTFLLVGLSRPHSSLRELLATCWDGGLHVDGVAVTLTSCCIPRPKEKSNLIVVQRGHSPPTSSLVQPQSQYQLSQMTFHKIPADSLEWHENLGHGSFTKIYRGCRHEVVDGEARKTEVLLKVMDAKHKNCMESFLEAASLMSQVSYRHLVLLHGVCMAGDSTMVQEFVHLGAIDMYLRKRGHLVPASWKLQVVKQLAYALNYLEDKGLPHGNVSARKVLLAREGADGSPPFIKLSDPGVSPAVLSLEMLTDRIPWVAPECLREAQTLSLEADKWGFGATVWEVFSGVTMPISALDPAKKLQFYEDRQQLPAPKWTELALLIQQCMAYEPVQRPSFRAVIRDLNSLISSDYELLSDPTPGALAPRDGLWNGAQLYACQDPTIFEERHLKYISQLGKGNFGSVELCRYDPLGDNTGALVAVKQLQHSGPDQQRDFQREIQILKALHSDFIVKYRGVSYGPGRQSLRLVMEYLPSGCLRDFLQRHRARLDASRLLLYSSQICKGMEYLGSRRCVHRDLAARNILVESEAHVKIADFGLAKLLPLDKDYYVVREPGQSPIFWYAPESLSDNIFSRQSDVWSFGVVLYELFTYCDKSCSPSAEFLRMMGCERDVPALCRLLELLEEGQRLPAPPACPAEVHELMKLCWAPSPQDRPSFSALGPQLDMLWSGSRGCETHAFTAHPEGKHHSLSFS
Description: (§1) Figure 5 Both IST5 and IST5-M suppress dimerization of Stat5 with similar efficacies in prostate cancer cells. (A), IST5 and IST5-M inhibit equally potently dimerization of Stat5 in native-gel-based Stat5 dimerization assay. CWR22Rv1 cells were transfected with STAT5A-eYFP (Stat5 wild type), STAT5A-N642H-eYFP (constitutive activated Stat5 by N642H mutation, as a positive control) or STAT3-eYFP (Stat3 wild type, as a negative control) constructs for 3 days. CWR22Rv1 cells were serum-starved for 16 h, pretreated with vanadate (1 mM) for 2 h, followed by treatment with vehicle, IST5 and IST5-M (1 µM) for 6 h and stimulation with Prl (10 nM) for 1 h. Dimerization of Stat5 was analyzed by detection of the eYFP fluorescence of the native Coomassie gel. (B), IST5 and IST5-M inhibited cytokine-induced dimerization of Stat5 with high efficacy in PC cells. PC-3 cells were co-transfected with pCMV-3Flag-Stat5a, pCMV-3Myc-Stat5a, and pPrlR plasmids. Cells were serum-starved for 16 h, pretreated with IST5, IST5-M or vehicle at indicated concentrations for 2 h, followed by stimulation with Prl (10 nM) for 30 min. Anti-MYC mAb was utilized to immunoprecipitate the MYC-tagged Stat5a and blotted with anti-FLAG mAb or anti-MYC mAb, as indicated. […] (C), densitometric analyses of the Stat5 dimerization data based on co-immunoprecipitations and immunoblotting in (B). […] Prostate cancer cells were treated with IST5 (6 µM) or vehicle for 6 h. Jak1, Jak2, Jak3 and Tyk2 were immunoprecipitated and blotted with anti-phospho-tyrosine, Jak1, Jak2, Jak3 and Tyk2 antibodies. Whole cell lysates (WCL) were immunoblotted for actin. (E), differences in posttranslational modifications were detected between native and recombinant STAT5a using mass spectrometry. Native STAT5a from CWR22Rv1 cells and recombinant STAT5a from E. coli were gel-purified, digested using trypsin, and analyzed by bottom-up mass spectrometry. Native full-length STAT5a (blue) is show with recombinant STAT5A highlighted (red). Sites of acetylation and phosphorylation from the respective sources are noted including two previously published sites of phosphorylation (asterisk).
(§2) Given that IST5 suppresses phosphorylation of Stat5 in PC cells, it is possible that IST5 inhibits the kinase(s) responsible for Stat5 phosphorylation and activation in PC cells. To evaluate if IST5 affects kinase activity in cancer cells, we tested kinase inhibitory activity of IST5 in two custom-tailored panels including 54 relevant kinases (Table 1), including Jak1, Jak2, Jak3, Tyk2, Abl1, Abl2, Lck, Fyn, Src and TrkB/C. In addition, we further tested if IST5 inhibits tyrosine phosphorylation of Jak1, Jak2, Jak3 or Tyk2 using a cell-based assay (Figure 5D), where phosphorylation of the kinase is indicative of enzymatic kinase activity. DU145 and CWR22Rv1 cells were treated with IST5 (6 µM) for 6 h followed by immunoprecipitation of Jak1, Jak2, Jak3 and Tyk2 and immunoblotting with anti-phospho-tyrosine antibody. […] Collectively, these findings indicate that the inhibitory effect of IST5 on Stat5 phosphorylation in cancer cells is not due to inhibition of Jak2 or other key kinases including Jak1, Jak3, Tyk2, Src, Lck, Fyn, TrkB/C, Abl1 or Abl2 (Table 1, Figure 5D).
(§3) Cell pellets were solubilized in the lysis buffer (10 mM Tris-HCl (pH 7.6), 5 mM EDTA, 50 mM sodium chloride, 30 mM sodium pyrophosphate, 50 mM sodium fluoride, 1 mM sodium orthovanadate, 1% Triton X-100, 1 mM phenylmethylsulfonyl fluoride, 5 µg/mL aprotinin, 1 µg/mL pepstatin A and 2 µg/mL leupeptin), and protein concentrations of clarified cell lysates were determined by a simplified Bradford method (Bio-Rad, Hercules, CA, USA). The whole cell lysates were immunoprecipitated with polyclonal antibodies (Table S1) followed by incubation with protein A-Sepharose beads (GE Healthcare, Chicago, IL, USA). […]

TYK2 = TYK2 (Homo sapiens, UniProt P29597); assay: as above; design: endogenous in cells; host or cells: DU145 and CWR22Pc; conditions: 6 µM, 6 h
TYK2, sequence (P29597 whole entry): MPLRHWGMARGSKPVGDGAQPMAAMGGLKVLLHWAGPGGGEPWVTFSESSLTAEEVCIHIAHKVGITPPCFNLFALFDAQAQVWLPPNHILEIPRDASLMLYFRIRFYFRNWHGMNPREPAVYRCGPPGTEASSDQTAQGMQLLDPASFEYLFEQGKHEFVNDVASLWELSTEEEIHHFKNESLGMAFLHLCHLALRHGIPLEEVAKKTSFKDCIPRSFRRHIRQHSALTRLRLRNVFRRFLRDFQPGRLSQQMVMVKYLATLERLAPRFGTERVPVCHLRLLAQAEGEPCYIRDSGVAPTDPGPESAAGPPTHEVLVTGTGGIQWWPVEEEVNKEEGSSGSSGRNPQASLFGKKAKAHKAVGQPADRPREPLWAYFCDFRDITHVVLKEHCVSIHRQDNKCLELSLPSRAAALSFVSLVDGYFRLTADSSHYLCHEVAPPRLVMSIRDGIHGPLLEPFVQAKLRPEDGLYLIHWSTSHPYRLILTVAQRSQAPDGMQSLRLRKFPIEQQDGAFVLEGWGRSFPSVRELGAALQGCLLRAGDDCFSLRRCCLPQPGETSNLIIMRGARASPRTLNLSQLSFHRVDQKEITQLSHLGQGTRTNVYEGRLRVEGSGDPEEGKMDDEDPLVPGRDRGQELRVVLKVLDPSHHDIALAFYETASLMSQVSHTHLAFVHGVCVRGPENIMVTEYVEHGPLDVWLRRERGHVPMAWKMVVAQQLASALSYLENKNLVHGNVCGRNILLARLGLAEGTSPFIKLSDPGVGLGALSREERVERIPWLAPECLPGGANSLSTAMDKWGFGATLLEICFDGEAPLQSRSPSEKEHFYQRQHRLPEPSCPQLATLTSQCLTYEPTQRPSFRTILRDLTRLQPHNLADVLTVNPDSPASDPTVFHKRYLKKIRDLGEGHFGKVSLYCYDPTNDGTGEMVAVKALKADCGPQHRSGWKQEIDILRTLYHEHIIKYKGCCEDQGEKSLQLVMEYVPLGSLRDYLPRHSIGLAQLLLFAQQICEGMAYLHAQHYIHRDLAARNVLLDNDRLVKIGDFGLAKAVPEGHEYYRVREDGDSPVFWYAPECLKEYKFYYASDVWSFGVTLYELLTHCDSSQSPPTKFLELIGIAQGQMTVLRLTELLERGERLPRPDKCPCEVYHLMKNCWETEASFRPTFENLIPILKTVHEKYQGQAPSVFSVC
Description: as §1, §2, §3

O=P(O)(O)OCC1OC(n2cnc3c(NCc4ccccc4)ncnc32)C(O)C1O (stereo not shown) [IST5]
did not alter: phosphorylation of Jak3 (JAK3; CWR22Pc cells) | phosphorylation of Jak3 (JAK3; DU145 cells) | phosphorylation of Tyk2 (TYK2; CWR22Pc cells) | phosphorylation of Tyk2 (TYK2; DU145 cells)
